Where two headings read alike, the source gives them in different places.
Assays:
[1] = test system: Acute myelomonocytic leukemia cells ML-2; assay: Caspase3/7 activity (Caspase-Glo 3/7) in ML-2 cells; format: cell-based; details: 15 h, 24 h and 41 h after exposure
Description: Acute myelomonocytic leukemia cells ML-2 were plated in 96 well plate at a density of 50,000 cells per a well in RPMI medium supplemented with 10% FBS. The cells were exposed to compounds and the early apoptosis marker, Caspase3/7 activity, was measured in the cells at 15 h, 24 h and 41 h after exposure to compounds. The caspase activity was determined using Caspase-Glo® 3/7 Assay (Promega) and according to the protocol provided by the manufacturer.

[2] = test system: T-cell lymphoma Hut-78; assay: Cell viability (Presto Blue), T-cell lymphoma Hut-78; format: cell-based; details: Homo sapiens, HuT78, Hut-78 cells, 70 hours exposure
Description: (§1) Three cancer cell lines, multiple myeloma KMS12E, Non-hodgkin's lymphoma SU-DHL4, T-cell lymphoma Hut-78, and normal human peripheral blood mononuclear cells derived from healthy individual were tested. The cells were plated in 384 well plates in RPMI medium supplemented with 10% fetal bovine serum. Cancer cells were plated at 1000 cells/well and normal cells at 10,000 cells per well in a total volume of 30 uL/well. Immediately after plating, the test compounds were added at […] concentrations: 10 uM-1 uM-0.01 uM-0.001 uM, in duplicate wells for each concentration. The cells were exposed to compounds for 70 hours at 37° C. in humidified incubator with 5% CO2. Cell viability was determined by Presto Blue reagent (Thermo Scientific/Invitrogen).

[3] = test system: IL-23 secretion by LPS-induced PBMCs; assay: IL-23 secretion by LPS-stimulated human PBMCs (ELISA); format: cell-based; details: 2 h pre-incubation, 100 ng/mL LPS 18 hours
Description: Human PBMCs were plated in 96 well plate at a density of 150,000 cells per a well in RPMI medium supplemented with 10% FBS. The cells were pre-incubated with compounds for 2 h. Following pre-incubation, the cells were stimulated with 100 ng/mL LPS for 18 hours. The secreted IL-23 was determined by ELISA (Human IL-23 Quantikine ELISA Kit, R&D cat #D2300B).

[4] = test system: multiple myeloma KMS12E; assay: Cell viability (Presto Blue), multiple myeloma KMS12E; format: cell-based; details: Homo sapiens, KMS12E cells, 70 hours exposure, read-out: Plasma cell myeloma, IC50
Description: as §1

[5] = test system: normal human peripheral blood mononuclear cells; assay: Cell viability (Presto Blue), normal human PBMCs; format: cell-based; details: for IC50: Homo sapiens, PBMC
Description: as §1

[6] = test system: multiple myeloma KMS12E, Non-hodgkin's lymphoma SU-DHL4, T-cell lymphoma Hut-78; assay: Cell viability (Presto Blue), panel of cancer cell lines; format: cell-based; details: Homo sapiens; range over KMS12E, SU-DHL4, Hut-78; 70 hours; read-out: IC50, viability of the three cancer cell lines
Description: Three cancer cell lines, multiple myeloma KMS12E, Non-hodgkin's lymphoma SU-DHL4, T-cell lymphoma Hut-78, and normal human peripheral blood mononuclear cells derived from healthy individual were tested. The cells were plated in 384 well plates in RPMI medium supplemented with 10% fetal bovine serum. Cancer cells were plated at 1000 cells/well and normal cells at 10,000 cells per well in a total volume of 30 uL/well. Immediately after plating, the test compounds were added at five concentrations: 10 uM-1 uM-0.01 uM-0.001 uM, in duplicate wells for each concentration. The cells were exposed to compounds for 70 hours at 37° C. in humidified incubator with 5% CO2. Cell viability was determined by Presto Blue reagent (Thermo Scientific/Invitrogen).

[7] = molecular target: T1, Full length human recombinant PIKFYVE (Homo sapiens, UniProt Q9Y2I7); assay: Biochemical PIKfyve assay; details: 2 nM enzyme, 10 μM ATP, 3 h room temperature
T1 construct: Full length human recombinant PIKFYVE expressed in baculovirus expression system as N-terminal GST-fusion protein; GST (N); purchased Carna Biosciences (Kobe, Japan); host or cells: baculovirus expression system
Description: Full length human recombinant PIKFYVE expressed in baculovirus expression system as N-terminal GST-fusion protein (265 kDa) was obtained from Carna Biosciences (Kobe, Japan). […] The kinase reactions were allowed to proceed for 3 h at room temperature. […] Terminated plates were analyzed on a microfluidic electrophoresis instrument (Caliper LabChip® 3000, Caliper Life Sciences/Perkin Elmer).

[8] = viability, Presto Blue, 70 hours exposure, read-out: Normal human PBMCs, IC50

T1 sequence (Q9Y2I7 whole entry, the tested form may be a part): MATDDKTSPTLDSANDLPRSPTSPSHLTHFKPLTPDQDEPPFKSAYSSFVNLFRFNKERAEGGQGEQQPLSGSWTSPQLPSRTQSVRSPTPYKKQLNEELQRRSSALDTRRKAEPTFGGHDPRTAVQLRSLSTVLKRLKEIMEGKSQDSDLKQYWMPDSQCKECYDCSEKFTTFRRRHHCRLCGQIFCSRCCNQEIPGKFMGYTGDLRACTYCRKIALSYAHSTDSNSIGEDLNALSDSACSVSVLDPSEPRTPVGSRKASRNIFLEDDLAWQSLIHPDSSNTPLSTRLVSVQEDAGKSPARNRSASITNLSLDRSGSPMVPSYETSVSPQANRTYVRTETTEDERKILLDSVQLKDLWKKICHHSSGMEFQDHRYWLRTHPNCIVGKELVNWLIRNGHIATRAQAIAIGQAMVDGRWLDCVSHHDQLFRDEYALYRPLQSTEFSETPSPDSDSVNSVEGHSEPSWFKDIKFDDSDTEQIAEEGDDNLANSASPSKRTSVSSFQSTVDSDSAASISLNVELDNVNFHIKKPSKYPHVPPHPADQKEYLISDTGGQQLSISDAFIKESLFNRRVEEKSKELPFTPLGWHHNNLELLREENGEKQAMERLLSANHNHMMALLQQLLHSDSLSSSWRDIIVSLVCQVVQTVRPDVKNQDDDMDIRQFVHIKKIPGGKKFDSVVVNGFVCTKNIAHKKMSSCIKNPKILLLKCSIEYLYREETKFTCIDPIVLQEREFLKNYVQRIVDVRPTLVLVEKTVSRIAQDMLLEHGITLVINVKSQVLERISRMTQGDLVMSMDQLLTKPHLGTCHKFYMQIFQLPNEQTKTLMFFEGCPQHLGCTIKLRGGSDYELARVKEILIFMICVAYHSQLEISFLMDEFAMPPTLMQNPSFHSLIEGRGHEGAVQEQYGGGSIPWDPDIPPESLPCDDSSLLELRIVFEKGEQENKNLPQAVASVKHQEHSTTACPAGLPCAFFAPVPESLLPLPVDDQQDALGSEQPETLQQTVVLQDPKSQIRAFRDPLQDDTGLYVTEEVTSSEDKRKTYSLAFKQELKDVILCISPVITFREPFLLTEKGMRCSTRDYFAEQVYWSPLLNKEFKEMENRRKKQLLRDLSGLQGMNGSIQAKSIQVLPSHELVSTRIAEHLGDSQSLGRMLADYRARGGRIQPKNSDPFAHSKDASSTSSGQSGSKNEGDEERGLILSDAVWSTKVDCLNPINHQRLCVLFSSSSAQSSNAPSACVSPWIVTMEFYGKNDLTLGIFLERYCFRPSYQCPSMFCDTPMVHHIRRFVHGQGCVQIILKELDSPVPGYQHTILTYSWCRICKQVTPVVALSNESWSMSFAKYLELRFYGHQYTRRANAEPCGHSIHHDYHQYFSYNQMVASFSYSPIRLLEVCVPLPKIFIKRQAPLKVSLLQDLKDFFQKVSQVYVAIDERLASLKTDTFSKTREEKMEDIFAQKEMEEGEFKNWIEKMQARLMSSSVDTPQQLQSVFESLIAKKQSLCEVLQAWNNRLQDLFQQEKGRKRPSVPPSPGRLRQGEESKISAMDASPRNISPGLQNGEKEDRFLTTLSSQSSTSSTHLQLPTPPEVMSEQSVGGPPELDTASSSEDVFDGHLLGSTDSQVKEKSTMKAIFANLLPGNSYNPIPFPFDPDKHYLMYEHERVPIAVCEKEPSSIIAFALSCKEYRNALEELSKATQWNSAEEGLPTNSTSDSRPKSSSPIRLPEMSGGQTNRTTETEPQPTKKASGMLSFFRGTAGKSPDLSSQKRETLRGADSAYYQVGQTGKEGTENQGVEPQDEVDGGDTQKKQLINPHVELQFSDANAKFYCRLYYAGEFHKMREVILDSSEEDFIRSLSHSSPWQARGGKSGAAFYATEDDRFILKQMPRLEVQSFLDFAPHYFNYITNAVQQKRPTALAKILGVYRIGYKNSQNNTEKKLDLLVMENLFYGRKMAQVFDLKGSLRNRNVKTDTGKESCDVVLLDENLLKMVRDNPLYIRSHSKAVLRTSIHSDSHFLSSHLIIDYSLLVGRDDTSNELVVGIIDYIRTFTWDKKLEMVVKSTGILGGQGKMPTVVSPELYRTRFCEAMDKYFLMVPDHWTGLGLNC

Compound | Caspase3/7 activation (early apoptosis marker) [1] | IC50 [2] [nM] | secretion of IL-23 [3] | IC50 [4] [nM] | IC50 ([5]; 70 hours, Example 14 text, read-out: IC50, viability of normal PBMCs) [nM] | IC50 [5, 8] [nM] | IC50 [6] [nM] | IC50 [7] [nM] | selectivity towards cancer cells over normal cells ([5]; Hut-78 and KMS12E vs normal human PBMCs)
Cc1cccc(/C=N/Nc2cc(N3CCOCC3)n3nc(-c4ccncc4)cc3n2)c1 [APY0201] | induce apoptosis | 28 | completely blocked secretion of IL-23 | 74 | > 10000 | > 10000 | 33 to 46 |  | 
Cc1cccc(/C=N/Nc2cc(N3CCOCC3)nc(OCCc3ccccn3)n2)c1 [Apilimod, apilimod] | induce apoptosis | 27 |  | 73 |  | > 10000 |  |  | 
Cc1cccc(/C=N/Nc2cc(N3CCOCC3)n3nc(-c4ccncc4)nc3n2)c1 [Compound 1, (E)-4-(5-(2-(3-methylbenzylidene)hydrazinyl)-2-(pyridin-4-yl)-[1,2,4]-triazolo[1,5-a]pyrimidin-7-yl)morpholine] | triggered Caspase3/7 activation | 47 | completely blocked secretion of IL-23 | 115 |  | > 10000 |  | 10 | showed selectivity towards cancer cells over normal cells
